Assay results published in patent US6235516A, “Biocatalysts with amine acylase activity” (Novartis AG, priority 1996, dated 2001).
Values joined by “and” are separate entries in the source; they are usually repeats but may differ in a detail not shown here. Identical values can stand only once.

Key:
Strain K1/1 = assay: Growth and induction of the acylase of Rhodococcus globerulus K1/1, variation of the inducer; type: cell-based; conditions: for induction of acylase formation by strain K1/1: racemic inducer, 0-9.84 mM
Protocol: Strain K1/1 is grown in shake flask culture using the medium from example 21, but with 2 g/l of each yeast extract and peptone, with racemic 2-acetylamino-1-phenyl-4-pentene or alternatively racemic N-acetyl-1-phenylethylamine as the inducer in concentrations of 0, 4.92, 7.38, and 9.84 mM.

K1/1 acylase = assay: Hydrolysis of racemic 2-acetylamino-1-phenyl-4-pentene with the purified K1/1 acylase; type: biochemical, Rhodococcus globerulus K1/1
Protocol: To 50 ml of a 10 mM solution of racemic 2-acetylamino-1-phenyl-4-pentene in phosphate buffer (pH 7.0) 7 ml of the K1/1 acylase are added (0.456 U), which has been purified by HIC and concentrated by ultrafiltration (example 26.5 and 26.6). The deacylation is performed at 30° C. under continuous shaking at 200 rpm. The reaction is monitored by HPLC (see example 1), and after the conversion is about 50% the solution is acidified to pH 2 with 1 N HCl and extracted three times with one volume of dichloromethane to obtain the unconverted amides. The aqueous phase is neutralized with 1 N NaOH and extracted again three times with dichloromethane to recover the formed amines. Both organic phases are dried with MgSO4, filtered and the solvent is distilled off. The amides are used directly for optical purity determinations via HPLC under the following conditions: Chiralcel OJ column, hexane/isopropanol 9:1 as the eluent, flow rate 1 ml/min., detection at 208 nm. The obtained amines are converted to the acetamides by adding […] to each sample before being also analyzed for the optical purity by HPLC.

[1] = system: acylase from Arthrobacter aurescens Ac5R; assay: Enzymatic hydrolysis of racemic amides with highly purified acylase from Arthrobacter aurescens Ac5R; type: biochemical; conditions: for Selectivity E: enantioselectivity of the hydrolysis; for e.e. (R)-Amine: formed amine, analysed as acetamide by chiral HPLC; for e.e. (S)-Amide: unconverted amide, chiral HPLC
Protocol: (§1) To 10 ml of a 20 mM solution of each of the racemic amides shown below 1 in 0.1 M phosphate buffer pH 7.0, 5 ml (1.3 units) of the enzyme is added and the solutions are shaken at 100 rpm and 30° C. [drawing 10] [drawing 11]
(§2) When the conversion reaches about 50% (checked by HPLC) the solutions are acidified to pH 2 by adding 1 N HCl and extracted three times with dichloromethane to obtain the unconverted amides. The aqueous layers are neutralized with 1 N NaOH solution and extracted again three times with dichloromethane to recover the formed amines. Both organic phases are dried with MgSO4, filtered and the solvent is distilled off. The amides are used directly for optical purity determinations (HPLC), whereas the obtained amines are converted to the acetamides by adding 100 μl triethylamine and 100 μl acetic anhydride to each sample and then analyzed for the optical purity by "chiral" HPLC.

[2] = biological target: T1, acylase from Rhodococcus equi Ac6 (Rhodococcus (subgen. Prescottella) equi, UniProt A0A3S5Y3Z2); assay: Enzymatic hydrolysis of racemic amides with partially purified acylase from Rhodococcus equi Ac6; type: biochemical; set-up: e.e. (R)-Amide: unit not given here; conditions: for Selectivity E: enantioselectivity of the hydrolysis; for e.e. (S)-Amine: formed amine, analysed as acetamide; for e.e. (R)-Amide: unconverted amide, chiral HPLC
T1 construct: N-terminus […]
Protocol: as §1, §2
The experiments are carried out in the same manner as described in example 22.

[3] = system: whole cells of Rhodococcus globerulus K1/1; assay: Amide hydrolysis with whole cells of Rhodococcus globerulus K1/1; type: cell-based; conditions: for Selectivity E: enantioselectivity of the hydrolysis; for e.e. (S)-Amine: formed amine, analysed as acetamide; for e.e. (R)-Amide: unconverted amide, chiral HPLC
Description: as §2
To 50 ml of a 10 mM solution in phosphate buffer pH 7.0 of each racemic amide listed in table 16, whole cells of Rhodococcus globerulus K1/1 (each obtained from 50 ml shake flask medium (see example 21), OD660 =2.0) is added. The deacetylation is performed at 30° C. under continuous shaking (200 rpm). The reaction is monitored by HPLC and after the conversion is about 50% the reaction mixtures are worked up in the same manner as described in example 22.

AcR5b-acylase [4] = assay: Dependence of the reaction velocity of the AcR5b-acylase on substrate concentration (Km, Vmax); type: biochemical, Arthrobacter aurescens AcR5b
Protocol: Activity assays are performed under the standard conditions given in example 11 with an incubation time of 30 min. using different initial concentrations of (R)-N-acetyl-1-phenylethylamine and racemic N-acetyl-(m-cyano-phenyl)ethylamine. The final AcR5b-acylase preparation obtained in example 4d, which has been diluted 20 fold with 69 mM potassium phosphate buffer, pH 7, serve as the enzyme source. The Michaelis constants (Km) and the maximum reaction velocities are calculated as described in example 9.

AcR5b-acylase [5] = assay: Stability of the AcR5b-acylase during freezing, with and without cryoprotective agents; type: physicochemical, Arthrobacter aurescens AcR5b

T1 sequence (A0A3S5Y3Z2 1-487): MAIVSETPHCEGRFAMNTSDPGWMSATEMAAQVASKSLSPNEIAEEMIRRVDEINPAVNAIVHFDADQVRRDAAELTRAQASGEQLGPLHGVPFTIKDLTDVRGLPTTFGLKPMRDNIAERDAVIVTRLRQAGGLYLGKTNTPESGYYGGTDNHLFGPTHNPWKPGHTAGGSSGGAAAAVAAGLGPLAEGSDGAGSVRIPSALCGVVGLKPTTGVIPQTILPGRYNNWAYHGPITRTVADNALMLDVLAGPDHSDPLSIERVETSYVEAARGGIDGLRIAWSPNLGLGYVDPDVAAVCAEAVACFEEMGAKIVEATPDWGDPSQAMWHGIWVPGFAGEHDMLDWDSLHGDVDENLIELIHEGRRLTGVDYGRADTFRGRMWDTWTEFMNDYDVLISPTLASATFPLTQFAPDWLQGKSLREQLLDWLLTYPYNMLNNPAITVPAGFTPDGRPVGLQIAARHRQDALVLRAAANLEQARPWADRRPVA

Structure (SMILES)	Selectivity E [1]	e.e. (R)-Amine [1]	e.e. (S)-Amide [1]	Selectivity E [3]	e.e. (S)-Amine [3]	e.e. (R)-Amide [3]	other results
C=CCC(Cc1ccccc1)NC(C)=O (racemic) [2-acetylamino-1-phenyl-4-pentene]							induction of acylase formation by strain K1/1 (Strain K1/1): inducing substance; conversion (K1/1 acylase; 10 mM racemic substrate, 0.456 U K1/1 acylase, pH 7.0, 30° C.): 50.3%; E-value (K1/1 acylase; at 50.3% conversion): 74.9
CC(=O)NC(C)c1ccccc1 (racemic) [Substrate 1a, N-acetyl 1-phenylethylamine]	> 500	98.2	> 99.9	> 500	97.5	> 99.9	Selectivity E [2]: 350; e.e. (S)-Amine [2]: 96.8; e.e. (R)-Amide [2]: 99.3; effect on growth of strain K1/1 (Strain K1/1; 7.38 and 9.84 mM): do not inhibit the growth; induction of acylase formation by strain K1/1 (Strain K1/1): inducing substance
CCC(NC(C)=O)c1ccccc1 (racemic) [Substrate 4a]	> 500	> 99.9	87.4	140	90.0	> 99.9	Selectivity E [2]: > 500; e.e. (S)-Amine [2]: 98.5; e.e. (R)-Amide [2]: > 99.9
CC(=O)NC1CCOc2ccccc21 (racemic) [Substrate 6a]	32	90.5	46.6	290	93.5	> 99.9	
C=CCC(Cc1ccccc1)NC(C)=O (racemic) [Substrate 10a]				70	90.0	95.7	
CCCC(Cc1ccccc1)NC(C)=O (racemic) [Substrate 11a]				35	77.8	97.8	
CCC(Cc1ccccc1)NC(C)=O (racemic) [Substrate 12a]				87	93.0 and 87.9	90.7 and > 99.9	
CC(=O)NC(C)c1cccc(C#N)c1 (racemic) [racemic (m-cyano) derivative, N-acetyl-(m-cyano-phenyl)ethylamine]							Km (AcR5b-acylase [4]; 30 min incubation, pH 7): 10.4 mM; relative maximum reaction velocity (AcR5b-acylase [4]; (R)-N-acetyl-1-phenylethylamine = 100): 23%
OCC(O)CO [5% Glycerol, Glycerol]							Relative activity (%) (AcR5b-acylase [5]; AcR5b-acylase frozen 2.5 h at -20° C. with the cryoprotective agent of the label (label AcR5b-acylase = none)): 100%; Relative activity (%) (AcR5b-acylase [5]; AcR5b-acylase frozen 2.5 h at -80° C. with the cryoprotective agent of the label (label AcR5b-acylase = none)): 100%; Relative activity (%) (AcR5b-acylase [5]; AcR5b-acylase frozen 9 days at -20° C. with the cryoprotective agent of the label (label AcR5b-acylase = none)): 89%; Relative activity (%) (AcR5b-acylase [5]; AcR5b-acylase frozen 9 days at -80° C. with the cryoprotective agent of the label (label AcR5b-acylase = none)): 97%
